From patent publication US10206907B2, “Compounds useful for the treatment of degenerative and inflammatory diseases” (GALAPAGOS NV, priority 2008, dated 2019)

Assays:
[1] = molecular target: Recombinant human JAK2 catalytic domain (Homo sapiens (Human), UniProt O60674); assay: JAK2 inhibition assay; format: biochemical; conditions: semi-quantitative score
Outline: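 Activity was taken as vehicle cpm minus cpm with 10 μM staurosporine, and inhibition was expressed on that scale. Incubation was 90 min at 30 °C, followed by acid quench, phosphoric acid washes and Microscint counting. Compounds were tested as dose series to obtain IC50.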

[2] = molecular target: Recombinant human JAK1 catalytic domain (Homo sapiens (Human), UniProt P23458); assay: JAK1 inhibition assay; format: biochemical; conditions: semi-quantitative score
Sequence of Recombinant human JAK1 catalytic domain (P23458 850-1154): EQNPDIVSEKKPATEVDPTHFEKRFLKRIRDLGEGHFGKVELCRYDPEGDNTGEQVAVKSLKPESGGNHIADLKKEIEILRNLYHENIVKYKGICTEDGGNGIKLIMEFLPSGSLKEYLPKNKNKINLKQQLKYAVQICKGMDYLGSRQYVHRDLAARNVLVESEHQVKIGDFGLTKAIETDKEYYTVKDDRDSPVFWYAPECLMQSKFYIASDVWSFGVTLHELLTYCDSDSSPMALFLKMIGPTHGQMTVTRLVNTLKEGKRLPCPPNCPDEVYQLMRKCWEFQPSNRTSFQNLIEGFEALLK
Outline: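 IC50 values come from dose-response series, with each point expressed as percent inhibition of cpm. Vehicle sets full activity and 10 μM staurosporine sets background. Incorporated radioactivity counted by scintillation after washing with 75 mM phosphoric acid.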

[3] = tested on: JAK-STAT signalling in HeLa cells; assay: JAK-STAT signalling assay (OSM-triggered pSTAT1(2)-luciferase reporter in HeLa cells); format: cell-based; conditions: Homo sapiens; HeLa cells, OSM-triggered pSTAT1(2)-luciferase reporter; read-out: STAT signalling EC50
Description: HeLa cells were maintained in Dulbecco's Modified Eagle's Medium (DMEM) containing 10% heat inactivated fetal calf serum, 100 U/mL penicillin and 100 μg/mL streptomycin. HeLa cells were used at 70% confluence for transfection. 20,000 cells in 87 μL cell culture medium were transiently transfected with 40 ng pSTAT1(2)-luciferase reporter (Panomics), 8 ng of LacZ reporter as internal control reporter and 52 ng of pBSK using 0.32 μL Jet-PEI (Polyplus) as transfection reagent per well in 96-well plate format. After overnight incubation at 37° C., 10% CO2, transfection medium was removed.
40 μL of cell lysate was used to read β-galactosidase activity by adding 180 μL βGal solution (30 μl ONPG 4 mg/mL+150 μL β-Galactosidase buffer (0.06 M Na2HPO4, 0.04 M NaH2PO4, 1 mM MgCl2)) for 20 min.
Luciferase activity was measured using 40 μL cell lysate plus 40 μl of Steadylite® as described by the manufacturer (Perkin Elmer), on the Envision (Perkin Elmer).
The positive and negative controls were used to calculate z’ and ‘percent inhibition’ (PIN) values.
PIN values were plotted for compounds tested in dose-response and EC50 values were derived.

MMP13 in SW1353 cells = assay: OSM/IL-1β signaling assay (MMP13 levels in SW1353 cells); format: cell-based; conditions: Homo sapiens; SW1353 cells, OSM and IL-1β triggered, MMP13 levels 48 hours after triggering; read-out: MMP13 EC50;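 further: secreted MMP13 captured by antibody, activated with APMA and its activity read by fluorescence, inhibition scaled between vehicle-treated triggered wells (0%) and untriggered wells (100%)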

Sequence of Recombinant human JAK2 catalytic domain (O60674 808-1132): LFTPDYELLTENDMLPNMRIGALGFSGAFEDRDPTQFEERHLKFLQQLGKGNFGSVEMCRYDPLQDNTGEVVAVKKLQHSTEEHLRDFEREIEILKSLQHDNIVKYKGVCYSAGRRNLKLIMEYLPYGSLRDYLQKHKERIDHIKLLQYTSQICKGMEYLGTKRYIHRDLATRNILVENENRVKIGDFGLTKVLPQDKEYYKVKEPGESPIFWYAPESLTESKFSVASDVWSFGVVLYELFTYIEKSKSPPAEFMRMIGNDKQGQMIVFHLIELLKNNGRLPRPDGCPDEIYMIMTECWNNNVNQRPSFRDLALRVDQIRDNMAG

Row | SMILES | IC50 [1] | IC50 [2] | EC50 [3] | EC50 (MMP13 in SW1353 cells)
1 | O=C(Nc1nc2cccc(-c3ccc(C(=O)N4CCCC(O)C4)cc3)n2n1)C1CC1 (centres unmarked) [Compound 270, Cyclopropanecarboxylic acid {5-[4-(3-hydroxy-piperidine-1-carbonyl)-phenyl]-[1,2,4]triazolo[1,5-a]pyridin-2-yl)-amide] | 0.101 to 0.5 µM | < 0.1 µM | > 1 µM | > 1 µM
2 | CC1CCN(C(=O)c2ccc(-c3cccc4nc(NC(=O)C5CC5)nn34)cc2)CC1 [Compound 146, N-(5-(4-(4-methylpiperidine-1-carbonyl)phenyl)-[1,2,4]triazolo[1,5-a]pyridin-2-yl)cyclopropanecarboxamide] |  | < 0.1 µM | > 1 µM | > 1 µM
3 | CC(C)(C)C1CCN(C(=O)c2ccc(-c3cccc4nc(NC(=O)C5CC5)nn34)cc2)CC1 [Compound 27, N-(5-(4-(4-tert-butylpiperidine-1-carbonyl)phenyl)-[1,2,4]triazolo[1,5-a]pyridin-2-yl)cyclopropanecarboxamide] | 0.501 to 1 µM | 0.101 to 0.5 µM | > 1 µM | > 1 µM
4 | O=C(NC1CCCCC1)c1ccc(-c2cccc3nc(NC(=O)C4CC4)nn23)cc1 [Compound 26, N-cyclohexyl-4-(2-(cyclopropanecarboxamido)-[1,2,4]triazolo[1,5-a]pyridin-5-yl)benzamide] | 0.101 to 0.5 µM | 0.101 to 0.5 µM | > 1 µM | > 1 µM
5 | O=C(Nc1nc2cccc(-c3ccc(C(=O)N4CCOCC4)cc3)n2n1)C1CC1 [Compound 24, N-(5-(4-(morpholine-4-carbonyl)phenyl)-[1,2,4]triazolo[1,5-a]pyridin-2-yl)cyclopropanecarboxamide] | 0.101 to 0.5 µM | 0.101 to 0.5 µM |  | > 1 µM
6 | CN1CCC(NC(=O)c2ccc(-c3cccc4nc(NC(=O)C5CC5)nn34)cc2)CC1 [Compound 32, 4-(2-(cyclopropanecarboxamido)-[1,2,4]triazolo[1,5-a]pyridin-5-yl)-N-(1-methylpiperidin-4-yl)benzamide] | > 1 µM | 0.501 to 1 µM |  | > 1 µM
7 | NC(=O)C1CCCCN1C(=O)c1ccc(-c2cccc3nc(NC(=O)C4CC4)nn23)cc1 (centres unmarked) [Compound 275, 1-{4-[2-(Cyclopropanecarbonyl-amino)-[1,2,4]triazolo[1,5-a]pyridin-5-yl]-benzoyl}-piperidine-2-carboxylic acid amide] | 0.101 to 0.5 µM | < 0.1 µM | > 1 µM | > 1 µM
8 | CC(=O)NC1CN(C(=O)c2ccc(-c3cccc4nc(NC(=O)C5CC5)nn34)cc2)C1 [Compound 287, Cyclopropanecarboxylic acid {5-[4-(3-acetylamino-azetidine-1-carbonyl)-phenyl]-[1,2,4]triazolo[1,5-a]pyridin-2-yl}-amide] |  | < 0.1 µM | > 1 µM | > 1 µM
9 | CN(C)C1CCN(C(=O)c2ccc(-c3cccc4nc(NC(=O)C5CC5)nn34)cc2)C1 (centres unmarked) [Compound 289, Cyclopropanecarboxylic acid {5-[4-(3-dimethylamino-pyrrolidine-1-carbonyl)-phenyl]-[1,2,4]triazolo[1,5-a]pyridin-2-yl}-amide] | 0.501 to 1 µM | < 0.1 µM | > 1 µM | > 1 µM
10 | N#CC1CN(c2ccc(-c3cccc4nc(NC(=O)C5CC5)nn34)cc2)C1 [Compound 288, Cyclopropanecarboxylic acid {5-[4-(3-cyano-azetidin-1-yl)-phenyl]-[1,2,4]triazolo[1,5-a]pyridin-2-yl}-amide] | 0.101 to 0.5 µM | < 0.1 µM | > 1 µM | 
11 | COC1CCN(Cc2ccc(-c3cccc4nc(NC(=O)C5CC5)nn34)cc2)CC1 [Compound 281, Cyclopropanecarboxylic acid {5-[4-(4-methoxy-piperidin-1-ylmethyl)-phenyl]-[1,2,4]triazolo[1,5-a]pyridin-2-yl}-amide] | > 1 µM | < 0.1 µM | > 1 µM | 
12 | O=C(Nc1nc2cccc(-c3ccc(C(=O)N4CCCC(CO)C4)cc3)n2n1)C1CC1 (centres unmarked) [Compound 276, Cyclopropanecarboxylic acid {5-[4-(3-hydroxymethyl-piperidine-1-carbonyl)-phenyl]-[1,2,4]triazolo[1,5-a]pyridin-2-yl}-amide] | 0.101 to 0.5 µM | < 0.1 µM | > 1 µM | > 1 µM
13 | CN(C)C1CCCN(C(=O)c2ccc(-c3cccc4nc(NC(=O)C5CC5)nn34)cc2)C1 (centres unmarked) [Compound 269, Cyclopropanecarboxylic acid {5-[4-(3-dimethylamino-piperidine-1-carbonyl)-phenyl]-[1,2,4]triazolo[1,5-a]pyridin-2-yl}-amide] | > 1 µM | 0.101 to 0.5 µM | > 1 µM | 
14 | O=C(Nc1nc2cccc(-c3ccc(C(=O)N4CC(N5CCOCC5)C4)cc3)n2n1)C1CC1 [Compound 326, Cyclopropanecarboxylic acid {5-[4-(3-morpholin-4-yl-azetidine-1-carbonyl)-phenyl]-[1,2,4]triazolo[1,5-a]pyridin-2-yl}-amide] | > 1 µM | 0.101 to 0.5 µM | > 1 µM | 

Next, values leading:

Row | IC50 [1] | IC50 [2] | EC50 [3] | EC50 (MMP13 in SW1353 cells) | SMILES
15 | 0.101 to 0.5 µM | < 0.1 µM | > 1 µM | > 1 µM | O=C(Nc1cccnn1)c1ccc(-c2cccc3nc(NC(=O)C4CC4)nn23)cc1 [Compound 221, 4-[2-(Cyclopropanecarbonyl-amino)-[1,2,4]triazolo[1,5-a]pyridin-5-yl]-N-pyridazin-3-yl-benzamide]
16 | 0.501 to 1 µM | < 0.1 µM | > 1 µM | > 1 µM | O=C(Nc1nc2cccc(-c3ccc(CNc4cccnc4)cc3)n2n1)C1CC1 [Compound 223, Cyclopropanecarboxylic acid {5-[4-(pyridin-3-ylaminomethyl)-phenyl]-[1,2,4]triazolo[1,5-a]pyridin-2-yl}-amide]
17 |  | < 0.1 µM | > 1 µM | 0.501 to 1 µM | O=C(Nc1nc2cccc(-c3ccc(NS(=O)(=O)c4ccccc4)cc3)n2n1)C1CC1 [Compound 79, N-(5-(4-(phenylsulfonamido)phenyl)-[1,2,4]triazolo[1,5-a]pyridin-2-yl)cyclopropanecarboxamide]
18 |  | < 0.1 µM | > 1 µM | > 1 µM | O=C(Nc1nc2cccc(-c3ccc(OCc4ccc(-c5nnn[nH]5)nc4)cc3)n2n1)C1CC1 [Compound 183, Cyclopropanecarboxylic Acid (5-{4-[6-(2H-tetrazol-5-yl)-pyridin-3-ylmethoxy]-phenyl}-[1,2,4]triazolo[1,5-a]pyridin-2-yl)-amide]
19 | 0.101 to 0.5 µM | 0.101 to 0.5 µM | > 1 µM | > 1 µM | O=C(Nc1ccc(-c2cccc3nc(NC(=O)C4CC4)nn23)cc1)c1ccc(C(F)(F)F)cc1 [Compound 22, N-(4-(2-(cyclopropanecarboxamido)-[1,2,4]triazolo[1,5-a]pyridin-5-yl)phenyl)-4-(trifluoromethyl)benzamide]
20 | < 0.1 µM | < 0.1 µM | 0.501 to 1 µM | > 1 µM | O=C(Nc1nc2cccc(-c3ccc(COc4ccccc4)cc3)n2n1)C1CC1 [Compound 238, Cyclopropanecarboxylic acid [5-(4-phenoxymethyl-phenyl)-[1,2,4]triazolo[1,5-a]pyridin-2-yl]-amide]
21 | 0.101 to 0.5 µM | < 0.1 µM | > 1 µM | 0.001 to 0.5 µM | O=C(Nc1nc2cccc(-c3ccc(CN4CCOC(c5ccccc5)C4)cc3)n2n1)C1CC1 (centres unmarked) [Compound 231]
22 | 0.101 to 0.5 µM | < 0.1 µM | > 1 µM | > 1 µM | O=C(Nc1nc2cccc(-c3ccc(CNc4cccnn4)cc3)n2n1)C1CC1 [Compound 222, Cyclopropanecarboxylic acid {5-[4-(pyridazin-3-ylaminomethyl)-phenyl]-[1,2,4]triazolo[1,5-a]pyridin-2-yl}-amide]
23 | 0.101 to 0.5 µM | < 0.1 µM | > 1 µM | > 1 µM | COc1ccc(CN(C)C(=O)c2ccc(-c3cccc4nc(NC(=O)C5CC5)nn34)cc2)cc1 [Compound 31, 4-(2-(cyclopropanecarboxamido)-[1,2,4]triazolo[1,5-a]pyridin-5-yl)-N-(4-methoxybenzyl)-N-methylbenzamide]
24 | 0.101 to 0.5 µM | < 0.1 µM | > 1 µM | > 1 µM | O=C(Nc1nc2cccc(-c3ccc(C(=O)N4CCC(COc5cccnc5)CC4)cc3)n2n1)C1CC1 [Compound 292, Cyclopropanecarboxylic acid (5-{4-[4-(pyridin-3-yloxymethyl)-piperidine-1-carbonyl]-phenyl}-[1,2,4]triazolo[1,5-a]pyridin-2-yl)-amide]
